Experimental data as given in PubChem BioAssay (NCI).
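Step 1: Grow cells in 96-well plates. Step 2: Expose to compound for 48 hours at 5 concentrations. Step 3: Interpolate endpoints linearly; if unreached, use highest concentration. TGI is the concentration that stops growth completely.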

Assays:
Experiment in all cases: NCI tumour cell line growth inhibition, 48 h
DLD-1 colon = test system: DLD-1 colon
MALME-3M melanoma = test system: MALME-3M melanoma
NCI-H522 lung = test system: NCI-H522 lung
HOP-18 NSCLC = test system: HOP-18 NSCLC
SNB-19 CNS = test system: SNB-19 CNS
NCI-H23 lung = test system: NCI-H23 lung
HOP-92 NSCLC = test system: HOP-92 NSCLC
U251 CNS = test system: U251 CNS
HCT-116 colon = test system: HCT-116 colon
LXFL 529 NSCLC = test system: LXFL 529 NSCLC
SK-OV-3 ovarian = test system: SK-OV-3 ovarian
XF 498 CNS = test system: XF 498 CNS
TK-10 renal = test system: TK-10 renal
HCT-15 colon = test system: HCT-15 colon
SW-620 colon = test system: SW-620 colon
A498 renal = test system: A498 renal
M19-MEL melanoma = test system: M19-MEL melanoma
SNB-78 CNS = test system: SNB-78 CNS
OVCAR-4 ovarian = test system: OVCAR-4 ovarian
SK-MEL-2 melanoma = test system: SK-MEL-2 melanoma
SNB-75 CNS = test system: SNB-75 CNS
SF-268 CNS = test system: SF-268 CNS
OVCAR-5 ovarian = test system: OVCAR-5 ovarian
UACC-62 melanoma = test system: UACC-62 melanoma
HT29 colon = test system: HT29 colon
COLO 205 colon = test system: COLO 205 colon
DMS 273 small cell lung = test system: DMS 273 small cell lung
SF-539 CNS = test system: SF-539 CNS
MOLT-4 leukemia = test system: MOLT-4 leukemia
ACHN renal = test system: ACHN renal
DMS 114 small cell lung = test system: DMS 114 small cell lung
OVCAR-8 ovarian = test system: OVCAR-8 ovarian
NCI-H226 lung = test system: NCI-H226 lung
EKVX NSCLC = test system: EKVX NSCLC
LOX IMVI melanoma = test system: LOX IMVI melanoma
A549 NSCLC = test system: A549 NSCLC
M14 melanoma = test system: M14 melanoma
KM20L2 colon = test system: KM20L2 colon
HL-60(TB) leukemia = test system: HL-60(TB) leukemia
CAKI-1 renal = test system: CAKI-1 renal
RXF-631 renal = test system: RXF-631 renal
UO-31 renal = test system: UO-31 renal
SK-MEL-28 melanoma = test system: SK-MEL-28 melanoma
RXF 393 renal = test system: RXF 393 renal
HCC-2998 colon = test system: HCC-2998 colon
SK-MEL-5 melanoma = test system: SK-MEL-5 melanoma
SF-295 CNS = test system: SF-295 CNS
KM12 colon = test system: KM12 colon
CCRF-CEM leukemia = test system: CCRF-CEM leukemia
SR leukemia = test system: SR leukemia
IGROV1 ovarian = test system: IGROV1 ovarian
NCI-H460 lung = test system: NCI-H460 lung
OVCAR-3 ovarian = test system: OVCAR-3 ovarian
UACC-257 melanoma = test system: UACC-257 melanoma
HOP-62 NSCLC = test system: HOP-62 NSCLC
786-0 renal = test system: 786-0 renal
K-562 leukemia = test system: K-562 leukemia
RPMI-8226 leukemia = test system: RPMI-8226 leukemia
SN12C renal = test system: SN12C renal

COc1ccc(C(=O)OC2C=COC(C)C2OC(=O)c2ccc(OC)cc2)cc1 (centres undefined)
TGI (DLD-1 colon): > 52.8 µM | TGI (MALME-3M melanoma): > 47.1 µM | TGI (NCI-H522 lung): 30.6 µM | TGI (HOP-18 NSCLC): > 61.1 µM | TGI (SNB-19 CNS): > 100 µM | TGI (NCI-H23 lung): 36.1 µM | TGI (HOP-92 NSCLC): 37.1 µM | TGI (U251 CNS): 97.9 µM | TGI (HCT-116 colon): 21.8 µM | TGI (LXFL 529 NSCLC): 28.1 µM | TGI (SK-OV-3 ovarian): > 100 µM | TGI (XF 498 CNS): > 61.8 µM | TGI (TK-10 renal): > 100 µM | TGI (HCT-15 colon): 33 µM | TGI (SW-620 colon): 35.1 µM | TGI (A498 renal): > 100 µM | TGI (M19-MEL melanoma): > 100 µM | TGI (SNB-78 CNS): > 100 µM | TGI (OVCAR-4 ovarian): > 63.2 µM | TGI (SK-MEL-2 melanoma): 43.2 µM | TGI (SNB-75 CNS): 51.7 µM | TGI (SF-268 CNS): 44.7 µM | TGI (OVCAR-5 ovarian): > 100 µM | TGI (UACC-62 melanoma): 37.7 µM | TGI (HT29 colon): 62.4 µM | TGI (COLO 205 colon): > 100 µM | TGI (DMS 273 small cell lung): 73.6 µM | TGI (SF-539 CNS): 33.6 µM | TGI (MOLT-4 leukemia): 56 µM | TGI (ACHN renal): > 100 µM | TGI (DMS 114 small cell lung): 37.1 µM | TGI (OVCAR-8 ovarian): > 73.7 µM | TGI (NCI-H226 lung): > 100 µM | TGI (EKVX NSCLC): > 100 µM | TGI (LOX IMVI melanoma): 29.8 µM | TGI (A549 NSCLC): > 100 µM | TGI (M14 melanoma): 35.9 µM | TGI (KM20L2 colon): > 77.1 µM | TGI (HL-60(TB) leukemia): 38 µM | TGI (CAKI-1 renal): > 100 µM | TGI (RXF-631 renal): 81.3 µM | TGI (UO-31 renal): > 100 µM | TGI (SK-MEL-28 melanoma): 33.2 µM | TGI (RXF 393 renal): 20.9 µM | TGI (HCC-2998 colon): > 100 µM | TGI (SK-MEL-5 melanoma): 32.1 µM | TGI (SF-295 CNS): > 100 µM | TGI (KM12 colon): 40.2 µM | TGI (CCRF-CEM leukemia): 52.4 µM | TGI (SR leukemia): 61.9 µM | TGI (IGROV1 ovarian): > 83.6 µM | TGI (NCI-H460 lung): > 100 µM | TGI (OVCAR-3 ovarian): 32.3 µM | TGI (UACC-257 melanoma): > 72.4 µM | TGI (HOP-62 NSCLC): > 100 µM | TGI (786-0 renal): > 86.6 µM | TGI (K-562 leukemia): 63.9 µM | TGI (RPMI-8226 leukemia): 47.2 µM | TGI (SN12C renal): > 64.5 µM
